What was measured:
[1] = target: T1, NAE (heterodimer of APPBP1 and UBA3) (Homo sapiens, UniProt Q8TBC4); assay: Nedd8 conjugation inhibitory activity (AlphaScreen); format: biochemical; settings: purified NAE, GST-UBC12, ATP, Biotin-Nedd8, reaction 90 minutes
T1 construct: amino acids 1 to 463 of human UBA3 protein; made in house; host or cells: Sf9 insect cells (baculovirus co-infection) for NAE; E. coli BL21 (DE3) for GST-UBC12
T1 sequence (Q8TBC4 1-463): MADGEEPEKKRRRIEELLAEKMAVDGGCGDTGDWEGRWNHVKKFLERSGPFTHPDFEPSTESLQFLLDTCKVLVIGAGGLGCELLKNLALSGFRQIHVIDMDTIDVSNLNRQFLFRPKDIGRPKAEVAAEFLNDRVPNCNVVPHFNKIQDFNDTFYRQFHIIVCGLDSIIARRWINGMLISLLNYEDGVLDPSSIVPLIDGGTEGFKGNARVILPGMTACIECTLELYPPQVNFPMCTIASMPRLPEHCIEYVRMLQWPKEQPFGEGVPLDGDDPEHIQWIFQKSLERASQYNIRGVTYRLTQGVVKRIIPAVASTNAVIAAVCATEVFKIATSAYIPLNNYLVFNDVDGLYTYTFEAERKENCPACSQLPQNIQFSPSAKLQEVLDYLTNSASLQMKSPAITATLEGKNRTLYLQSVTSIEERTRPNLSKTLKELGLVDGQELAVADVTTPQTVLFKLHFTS
T1 sequence (Q13564 1-534 partner): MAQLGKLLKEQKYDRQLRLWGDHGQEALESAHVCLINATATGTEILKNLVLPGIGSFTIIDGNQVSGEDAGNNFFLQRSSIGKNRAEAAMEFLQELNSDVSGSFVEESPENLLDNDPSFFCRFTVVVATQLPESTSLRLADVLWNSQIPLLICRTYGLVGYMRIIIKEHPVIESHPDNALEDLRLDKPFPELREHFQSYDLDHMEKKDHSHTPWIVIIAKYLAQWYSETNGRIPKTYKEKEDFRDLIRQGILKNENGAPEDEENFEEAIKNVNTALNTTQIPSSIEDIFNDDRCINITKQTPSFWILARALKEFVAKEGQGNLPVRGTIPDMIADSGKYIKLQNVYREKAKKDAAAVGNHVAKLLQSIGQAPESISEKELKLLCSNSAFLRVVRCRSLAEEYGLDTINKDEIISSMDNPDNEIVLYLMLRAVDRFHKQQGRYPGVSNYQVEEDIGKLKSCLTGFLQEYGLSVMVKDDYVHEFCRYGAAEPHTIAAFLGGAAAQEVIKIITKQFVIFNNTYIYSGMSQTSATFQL

[2] = test system: human acute T lymphoblastic leukemia CCRF-CEM cell lines; assay: Cell growth inhibition 1 (CellTiter-Glo); format: cell-based; settings: culture with test compound 72 hours
[3] = test system: tumor cell lines shown in Table 44; assay: Example 12: combined use with platinum-based antitumor agent, cell growth inhibition test (IC50 ratio, CI); settings: for IC50 Ratio: IC50 of Reference Example Compound 55 : IC50 of other compound = 1:value; for CI: at ED50; for Comprehensive Evaluation: combined use with Reference Example Compound 55
[4] = test system: tumor cell lines shown in Table 42; assay: Example 11: combined use with antimetabolite, cell growth inhibition test (IC50 ratio, CI); format: cell-based; settings: A431; for CI: at ED50

Structure (SMILES)	IC50 [1]	IC50 [2]	also measured
Nc1ncnc2c1c(C#Cc1c(F)cc(N3CCC(C(=O)O)C3)cc1F)cn2[C@@H]1O[C@H](CNS(N)(=O)=O)[C@@H](O)[C@H]1O (stereo partly drawn) [Reference Example 41, 1-[4-[2-[4-amino-7-[(2R,3R,4S,5R)-3,4-dihydroxy-5-[(sulfamoylamino)methyl]tetrahydrofuran-2-yl]pyrrolo[2,3-d]pyrimidin-5-yl]ethynyl]-3,5-difluoro-phenyl]pyrrolidine-3-carboxylic Acid]	≤ 0.003 µM		
COC(=O)c1cc(F)c(C#Cc2cn([C@@H]3O[C@H](CNS(N)(=O)=O)[C@@H](O)[C@H]3O)c3ncnc(N)c23)c(F)c1 [Reference Example 58, Methyl 4-[2-[4-amino-7-[(2R,3R,4S,5R)-3,4-dihydroxy-5-[(sulfamoylamino)methyl]tetrahydrofuran-2-yl]pyrrolo[2,3-d]pyrimidin-5-yl]ethynyl]-3,5-difluoro-benzoate]	≤ 0.003 µM		
Nc1cc(F)c(C#Cc2cn([C@@H]3O[C@H](CNS(N)(=O)=O)[C@@H](O)[C@H]3O)c3ncnc(N)c23)c(F)c1 [Reference Example 24, 4-Amino-5-[2-(4-amino-2,6-difluoro-phenyl)ethynyl]-7-[(2R,3R,4S,5R)-3,4-dihydroxy-5-[(sulfamoylamino)methyl]tetrahydrofuran-2-yl]pyrrolo[2,3-d]pyrimidine]	≤ 0.003 µM		
N.N.[Cl][Pt][Cl] [Cisplatin, cisplatin]			IC50 Ratio ([3]; HCT116): 343; CI ([3]; HCT116, Reference Example Compound 55:other compound 1:333): 0.44; CI ([3]; HCT116, Reference Example Compound 55:other compound 1:1000): 0.72; Comprehensive Evaluation ([3]; HCT116): Moderate
CS(=O)(=O)c1ccccc1C#Cc1cn([C@@H]2O[C@H](CNS(N)(=O)=O)[C@@H](O)[C@H]2O)c2ncnc(N)c12 [Reference Example 22, 4-Amino-7-[(2R,3R,4S,5R)-3,4-dihydroxy-5-[(sulfamoylamino)methyl]tetrahydrofuran-2-yl]-5-[2-(2-methylsulfonylphenyl)ethynyl]pyrrolo[2,3-d]pyrimidine]	≤ 0.003 µM		
N.N.O=C([O-])C1(C(=O)[O-])CCC1.[Pt+2] [Carboplatin, carboplatin]			IC50 Ratio ([3]; A549): 38; CI ([3]; A549, Reference Example Compound 55:other compound 1:17): 0.41; CI ([3]; A549, Reference Example Compound 55:other compound 1:50): 0.87; Comprehensive Evaluation ([3]; A549): Slight
Nc1ncnc2c1c(C#Cc1c(F)cc(N3CCC[C@@H](O)C3)cc1F)cn2[C@@H]1O[C@H](CNS(N)(=O)=O)[C@@H](O)[C@H]1O [Reference Example 40, 4-Amino-5-[2-[2,6-difluoro-4-[(3R)-3-hydroxy-1-piperidyl]phenyl]ethynyl]-7-[(2R,3R,4S,5R)-3,4-dihydroxy-5-[(sulfamoylamino)methyl]tetrahydrofuran-2-yl]pyrrolo[2,3-d]pyrimidine]	≤ 0.003 µM	19 nM	
Nc1ncnc2c1c(C#Cc1c(F)cccc1F)cn2[C@@H]1O[C@H](COS(N)(=O)=O)[C@@H](O)[C@H]1O [Reference Example 132, [(2R,3S,4R,5R)-5-[4-Amino-5-[2-(2,6-difluorophenyl)ethynyl]pyrrolo[2,3-d]pyrimidin-7-yl]-3,4-dihydroxy-tetrahydrofuran-2-yl]methyl sulfamate]	≤ 0.003 µM	1.8 nM	
Nc1ncnc2c1c(C#Cc1c(F)cc(N3CCOCC3)cc1F)cn2[C@@H]1O[C@H](CNS(N)(=O)=O)[C@@H](O)[C@H]1O [Reference Example 23, 4-[4-[2-[4-Amino-7-[(2R,3R,4S,5R)-3,4-dihydroxy-5-[(sulfamoylamino)methyl]tetrahydrofuran-2-yl]pyrrolo[2,3-d]pyrimidin-5-yl]ethynyl]-3,5-difluoro-phenyl]morpholine]	≤ 0.003 µM		
Nc1ccn([C@@H]2O[C@H](CO)[C@@H](O)C2(F)F)c(=O)n1 [Gemcitabine, gemcitabine]			IC50 Ratio ([4]; IC50 of Reference Example Compound 55 : IC50 of other compound = 1:value): 0.01; CI ([4]; Reference Example Compound 55:other compound 1:0.007): 0.70; CI ([4]; Reference Example Compound 55:other compound 1:0.02): 0.49; Comprehensive Evaluation ([4]; combined use with Reference Example Compound 55): Synergism (0.3-0.7)

Continued, in another order:

IC50 [1]	IC50 [2]	Structure (SMILES)	also measured
≤ 0.003 µM		CCS(=O)(=O)c1cc(N2CCCC2)cc(F)c1C#Cc1cn([C@@H]2C[C@H](CNS(N)(=O)=O)[C@@H](O)[C@H]2O)c2ncnc(N)c12 [Reference Example 114, 4-Amino-7-[(1R,2S,3R,4R)-2,3-dihydroxy-4-[(sulfamoylamino)methyl]cyclopentyl]-5-[2-(2-ethylsulfonyl-6-fluoro-4-pyrrolidin-1-yl-phenyl)ethynyl]pyrrolo[2,3-d]pyrimidine]	
≤ 0.003 µM		CCS(=O)(=O)c1cc(N2CC[C@@H](F)C2)cc(F)c1C#Cc1cn([C@@H]2O[C@H](CNS(N)(=O)=O)[C@@H](O)[C@H]2O)c2ncnc(N)c12 [Reference Example 75, 4-Amino-7-[(2R,3R,4S,5R)-3,4-dihydroxy-5-[(sulfamoylamino)methyl]tetrahydrofuran-2-yl]-5-[2-[2-ethylsulfonyl-6-fluoro-4-[(3R)-3-fluoropyrrolidin-1-yl]phenyl]ethynyl]pyrrolo[2,3-d]pyrimidine]	
≤ 0.003 µM	160 nM	Nc1ncnc2c1c(C#Cc1c(F)cc(N3CCS(=O)(=O)CC3)cc1F)cn2[C@@H]1O[C@H](CNS(N)(=O)=O)[C@@H](O)[C@H]1O [Reference Example 74, 4-[4-[2-[4-amino-7-[(2R,3R,4S,5R)-3,4-dihydroxy-5-[(sulfamoylamino)methyl]tetrahydrofuran-2-yl]pyrrolo[2,3-d]pyrimidin-5-yl]ethynyl]-3,5-difluoro-phenyl]-1,1-dioxo-1,4-thiazinane]	
≤ 0.003 µM	7.8 nM	Nc1ncnc2c1c(C#Cc1c(F)cc(N3CC(O)C3)cc1F)cn2[C@@H]1O[C@H](CNS(N)(=O)=O)[C@@H](O)[C@H]1O [Reference Example 39, 4-Amino-5-[2-[2,6-difluoro-4-(3-hydroxyazetidin-1-yl)phenyl]ethynyl]-7-[(2R,3R,4S,5R)-3,4-dihydroxy-5-[(sulfamoylamino)methyl]tetrahydrofuran-2-yl]pyrrolo[2,3-d]pyrimidine]	
≤ 0.003 µM		COc1ccc(C#Cc2cn([C@@H]3C[C@H](CNS(N)(=O)=O)[C@@H](O)[C@H]3O)c3ncnc(N)c23)c(S(C)(=O)=O)c1 [Reference Example 113, 4-Amino-7-[(1R,2S,3R,4R)-2,3-dihydroxy-4-[(sulfamoylamino)methyl]cyclopentyl]-5-[2-(4-methoxy-2-methylsulfonyl-phenyl)ethynyl]pyrrolo[2,3-d]pyrimidine]	
≤ 0.003 µM	37 nM	Nc1ncnc2c1c(C#Cc1c(F)cc(N3CCCC3=O)cc1F)cn2[C@@H]1O[C@H](CNS(N)(=O)=O)[C@@H](O)[C@H]1O [Reference Example 33, 4-Amino-5-[2-[2,6-difluoro-4-(2-oxopyrrolidin-1-yl)phenyl]ethynyl]-7-[(2R,3R,4S,5R)-3,4-dihydroxy-5-[(sulfamoylamino)methyl]tetrahydrofuran-2-yl]pyrrolo[2,3-d]pyrimidine]	
≤ 0.003 µM		CCOc1cccc(F)c1C#Cc1cn([C@@H]2O[C@H](CNS(N)(=O)=O)[C@@H](O)[C@H]2O)c2ncnc(N)c12 [Reference Example 55, 4-Amino-7-[(2R,3R,4S,5R)-3,4-dihydroxy-5-[(sulfamoylamino)methyl]tetrahydrofuran-2-yl]-5-[2-(2-ethoxy-6-fluoro-phenyl)ethynyl]pyrrolo[2,3-d]pyrimidine]	
≤ 0.003 µM	2.1 nM	CCOc1cccc(F)c1C#Cc1cn([C@@H]2C=C(CNS(N)(=O)=O)[C@@H](O)[C@H]2O)c2ncnc(N)c12 [Reference Example 129, 4-Amino-7-[(1R,4R,5S)-4,5-dihydroxy-3-[(sulfamoylamino)methyl]cyclopent-2-en-1-yl]-5-[2-(2-ethoxy-6-fluoro-phenyl)ethynyl]pyrrolo[2,3-d]pyrimidine]	
≤ 0.003 µM		Nc1ncnc2c1c(C#Cc1ccccc1)cn2[C@@H]1O[C@H](COS(N)(=O)=O)[C@@H](O)[C@H]1O [Reference Example 131, [(2R,3S,4R,5R)-5-[4-amino-5-(2-phenylethynyl)pyrrolo[2,3-d]pyrimidin-7-yl]-3,4-dihydroxy-tetrahydrofuran-2-yl]methyl sulfamate]	

From patent publication US20190010158A1, “ANTITUMOR EFFECT POTENTIATOR COMPRISING PYRROLOPYRIMIDINE COMPOUND” (TAIHO PHARMACEUTICAL CO., LTD, priority 2015, published 2019)
